The values below are quoted from earlier work in patent EP0602619A1, “Controlled-release pharmaceutical compositions containing nicergoline” (INVERNI DELLA BEFFA FARMACEUTICI S.r.l., priority 1992, dated 1994).

Regarding `CO[C@]12C[C@@H](COC(=O)c3cncc(Br)c3)CN(C)[C@@H]1Cc1cn(C)c3cccc2c13` [Nicergoline, 8-β-1,6-dimethyl-[(5-bromonicotinoyloxy)methyl]-10α-methoxyergoline], the “period of excretion of the administered dose” value (humans, urine and feces) is 3 to 4 days. For the same compound, the half-life entry (in vivo) is recorded as “very short”.
